In US20180243304A1, “PHARMACEUTICAL COMBINATIONS COMPRISING (A) THE CYCLIN DEPENDENT KINASE 4/6 (CDK4/6) INHIBITOR LEE011 (=RIBOCICLIB), AND (B) THE EPIDERMAL GROWTH FACTOR RECEPTOR (EGFR) INHIBITOR ERLOTINIB, FOR THE TREATMENT OR PREVENTION OF CANCER” (Novartis AG, priority 2015, published 2018):

Assays:
[1] = test system: DLD-1; assay: Cell proliferation (cell count by microscopy), DLD-1; assay type: cell-based; conditions: Homo sapiens; DLD-1 (KRAS, PIK3CA), 72 h treatment, single agent tested 13 nM-10 μM; 50% of cell counts relative to DMSO
From the text: (§1) The debris counts were subtracted from raw nuclei counts.
(§2) The model input were inhibition values per drug dose: […]

[2] = test system: COLO-320; assay: Cell proliferation (cell count by microscopy), COLO-320; assay type: cell-based; conditions: Homo sapiens; COLO-320 (no driver mutation listed), 72 h treatment, single agent tested 13 nM-10 μM; 50% of cell counts relative to DMSO
From the text: as §1, §2

[3] = test system: LIM2551; assay: Cell proliferation (cell count by microscopy), LIM2551; assay type: cell-based; conditions: LIM2551 (BRAF, PIK3CA), 72 h treatment, single agent tested 13 nM-10 μM; 50% of cell counts relative to DMSO
From the text: as §1, §2

[4] = test system: COLO-205; assay: Cell proliferation (cell count by microscopy), COLO-205; assay type: cell-based; conditions: Homo sapiens; COLO-205 (BRAF), 72 h treatment, single agent tested 13 nM-10 μM; 50% of cell counts relative to DMSO
From the text: as §1, §2

[5] = test system: HCT-116; assay: Cell proliferation (cell count by microscopy), HCT-116; assay type: cell-based; conditions: Homo sapiens; HCT-116 (KRAS, PIK3CA), 72 h treatment, single agent tested 13 nM-10 μM; 50% of cell counts relative to DMSO
From the text: as §1, §2

[6] = test system: HT-29; assay: Cell proliferation (cell count by microscopy), HT-29; assay type: cell-based; conditions: Homo sapiens; HT-29 (BRAF, PIK3CA), 72 h treatment, single agent tested 13 nM-10 μM; 50% of cell counts relative to DMSO
From the text: as §1, §2

[7] = test system: LS411N; assay: Cell proliferation (cell count by microscopy), LS411N; assay type: cell-based; conditions: Homo sapiens, LS-411N; LS411N (BRAF), 72 h treatment, single agent tested 13 nM-10 μM; 50% of cell counts relative to DMSO
From the text: as §1, §2

[8] = test system: LoVo; assay: Cell proliferation (cell count by microscopy), LoVo; assay type: cell-based; conditions: Homo sapiens; LoVo (KRAS), 96 h treatment, single agent tested 13 nM-10 μM; 50% of cell counts relative to DMSO
From the text: as §1, §2

[9] = test system: SW837; assay: Cell proliferation (cell count by microscopy), SW837; assay type: cell-based; conditions: Homo sapiens; SW837 (KRAS), 72 h treatment, single agent tested 13 nM-10 μM; 50% of cell counts relative to DMSO
From the text: as §1, §2

[10] = test system: SW480; assay: Cell proliferation (cell count by microscopy), SW480; assay type: cell-based; conditions: Homo sapiens; SW480 (KRAS), 72 h treatment, single agent tested 13 nM-10 μM; 50% of cell counts relative to DMSO
From the text: as §1, §2

[11] = test system: 15 colorectal cancer cell lines; conditions: single agent, 13 nM-10 μM
Experimental: The compounds were dissolved in 100% DMSO (Sigma, Catalog number D2650) at concentrations of 20 mM and stored at -20° C. until use.
All cell line media were supplemented with 10% FBS (HyClone, Catalog number SH30071.03).
Cell lines were cultured in 37° C. and 5% CO2 incubator and expanded in T-75 flasks. In all cases cells were thawed from frozen stocks, expanded through ≤1 passage using 1:3 dilutions, counted and assessed for viability using a ViCell counter (Beckman-Coulter) prior to plating. […] All cell lines were determined to be free of mycoplasma contamination as determined by a PCR detection methodology performed at Idexx Radil (Columbia, Mo., USA) and correctly identified by detection of a panel of SNPs.
The compound's effect on cell proliferation was calculated from the cell counts of the treatments relative to the cell counts of the negative control (DMSO), in FIG. 1 denoted as ‘Normalized cell count’ (=‘xnorm’) on the y-axis. […] The model input were inhibition values per drug dose:
I=1-xnorm • I: Inhibition • xnorm: normalized cell count (median of three replicates) […]
C=ΣConc(Idata*(Idata−Imodel)) • Idata: measured inhibition • Imodel: inhibition according to HSA null hypothesis
Robust combination z-scores (zC) were calculated as the ratio of the treatments' combination scores C and the median absolute deviation (mad) of non-interacting combinations: […]

[12] = test system: OUMS-23; assay: Cell proliferation (cell count by microscopy), OUMS-23; assay type: cell-based; conditions: OUMS-23 (BRAF), 72 h treatment, single agent tested 13 nM-10 μM; 50% of cell counts relative to DMSO
From the text: as §1, §2

[13] = test system: GP2d; assay: Cell proliferation (cell count by microscopy), GP2d; assay type: cell-based; conditions: GP2d (KRAS, PIK3CA), 72 h treatment, single agent tested 13 nM-10 μM; 50% of cell counts relative to DMSO
From the text: as §1, §2

[14] = test system: LS-180; assay: Cell proliferation (cell count by microscopy), LS-180; assay type: cell-based; conditions: Homo sapiens, LS180; LS-180 (KRAS, PIK3CA), 72 h treatment, single agent tested 13 nM-10 μM; 50% of cell counts relative to DMSO
From the text: as §1, §2

[15] = test system: RKO; assay: Cell proliferation (cell count by microscopy), RKO; assay type: cell-based; conditions: Homo sapiens; RKO (BRAF, PIK3CA), 72 h treatment, single agent tested 13 nM-10 μM; 50% of cell counts relative to DMSO
From the text: as §1, §2

Work on `C#Cc1cccc(Nc2ncnc3cc(OCCOC)c(OCCOC)cc23)c1` [Erlotinib, N-(3-ethynylphenyl)-6,7-bis(2-methoxyethoxy)quinazolin-4-amine] yielded an IC50 [1] of 7.06 µM, an IC50 [2] of 6.92 µM and an IC50 [3] of over 10 µM. The IC50 [4] was over 10 µM, the IC50 [5] was over 10 µM and the IC50 [6] was over 10 µM. For the same compound, the IC50 [7] was over 10 µM, the IC50 [8] was 0.716 µM and the IC50 [9] was over 10 µM. The IC50 [10] was over 10 µM, the “cell lines in which IC50s were achieved for the concentration range tested” value [11] was 5/15 and the IC50 [12] was over 10 µM. The IC50 [13] was 8.86 µM, the IC50 [14] was over 10 µM and the IC50 [15] was over 10 µM.
